Consider 22 compounds from US10487092B2, “Pyrazolopyridinamines as MKNK1 and MKNK2 inhibitors” (BAYER PHARMA AKTIENGESELLSCHAFT, priority 2014, dated 2019).

Chain of human full-length MKNK1 (Q9BUB5 other isoform, or with tags, fused parts or gaps T344D): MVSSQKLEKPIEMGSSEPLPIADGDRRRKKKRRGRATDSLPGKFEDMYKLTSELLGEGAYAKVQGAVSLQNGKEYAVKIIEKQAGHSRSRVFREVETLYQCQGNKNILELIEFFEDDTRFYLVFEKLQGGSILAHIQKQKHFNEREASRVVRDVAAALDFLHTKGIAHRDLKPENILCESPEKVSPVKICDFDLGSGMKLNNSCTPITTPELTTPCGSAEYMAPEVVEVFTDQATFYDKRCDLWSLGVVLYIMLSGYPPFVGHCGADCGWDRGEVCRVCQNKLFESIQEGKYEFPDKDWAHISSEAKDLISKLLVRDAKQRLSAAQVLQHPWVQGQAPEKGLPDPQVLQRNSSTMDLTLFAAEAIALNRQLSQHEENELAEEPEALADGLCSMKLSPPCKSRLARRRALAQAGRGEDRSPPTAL

The target in the assay is human full-length MKNK1 (Homo sapiens (Human), UniProt Q9BUB5, T344D). Briefly: MKNK1 kinase high ATP assay (TR-FRET). The class given is biochemical. The note with it: high ATP (2 mM), 15 min preincubation with enzyme; read-out: MKNK1 IC50. The protocol:
MKNK1 Kinase High ATP Assay
MKNK1-inhibitory activity at high ATP of compounds of the present invention after their preincubation with MKNK1 was quantified employing the TR-FRET-based MKNK1 high ATP assay as described in the following paragraphs.
A recombinant fusion protein of Glutathione-S-Transferase (GST, N-terminally) and human full-length MKNK1 (amino acids 1-424 and T344D of accession number BAA 19885.1), expressed in insect cells using baculovirus expression system and purified via glutathione sepharose affinity chromatography, was purchased from Carna Biosciences (product no 02-145) and used as enzyme. As substrate for the kinase reaction the biotinylated peptide biotin-Ahx-IKKRKLTRRKSLKG (SEQ ID NO: 1, C-terminus in amide form) was used, which can be purchased e.g. from the company Biosyntan (Berlin-Buch, Germany).
For the assay 50 nL of a 100 fold concentrated solution of the test compound in DMSO was pipetted into a black low volume 384 well microtiter plate (Greiner Bio-One, Frickenhausen, Germany), 2 μL of a solution of MKNK1 in aqueous assay buffer [50 mM HEPES pH 7.5, 5 mM MgCl2, 1.0 mM dithiothreitol, 0.005% (v/v) Nonidet-P40 (Sigma)] was added and the mixture was incubated for 15 min at 22° C. to allow pre-binding of the test compounds to the enzyme before the start of the kinase reaction. Then the kinase reaction was started by the addition of 3 μL of a solution of adenosine-tri-phosphate (ATP, 3.3 mM=>final conc. in the 5 μL assay volume is 2 mM) and substrate (0.1 μM=>final conc. in the 5 μL assay volume is 0.06 μM) in assay buffer and the resulting mixture was incubated for a reaction time of 30 min at 22° C. The concentration of MKNK1 was adjusted depending of the activity of the enzyme lot and was chosen appropriate to have the assay in the linear range, typical concentrations were in the range of 0.003 μg/mL. The reaction was stopped by the addition of 5 μL of a solution of TR-FRET detection reagents (5 nM streptavidine-XL665 [Cisbio Bioassays, Codolet, France] and 1 nM anti-ribosomal protein S6 (pSer236)-antibody from Invitrogen [#44921G] and 1 nM LANCE EU-W1024 labeled ProteinG [Perkin-Elmer, product no. AD0071]) in an aqueous EDTA-solution (100 mM EDTA, 0.1% (w/v) bovine serum albumin in 50 mM HEPES pH 7.5).
The resulting mixture was incubated for 1 h at 22° C. to allow the formation of complex between the phosphorylated biotinylated peptide and the detection reagents. Subsequently the amount of phosphorylated substrate was evaluated by measurement of the resonance energy transfer from the Eu-chelate to the streptavidine-XL. Therefore, the fluorescence emissions at 620 nm and 665 nm after excitation at 350 nm were measured in a TR-FRET reader, e.g. a Rubystar (BMG Labtechnologies, Offenburg, Germany) or a Viewlux (Perkin-Elmer). The ratio of the emissions at 665 nm and at […] was taken as the measure for the amount of phosphorylated substrate. The data were normalised (enzyme reaction without inhibitor=0% inhibition, all other assay components but no enzyme=100% inhibition).
In general terms: Time-resolved FRET reads energy transfer from a long-lived donor to a nearby acceptor.
For `CC1(O)CN(C(=O)[C@H]2CCc3c(sc4ncnc(Nc5ccn6nccc6c5)c34)C2)C1` [Example 30, (3-Hydroxy-3-methylazetidin-1-yl)[(7S)-4-(pyrazolo[1,5-a]pyridin-5-ylamino)-5,6,7,8-tetrahydro[1]benzothieno[2,3-d]pyrimidin-7-yl]methanone], the half-inhibitory concentration (IC50) (as a rule, the concentration that gives 50% inhibition) stood at 16 nM.

Regarding `C[C@H]1COCCN1C(=O)[C@H]1CCc2c(sc3ncnc(Nc4ccn5nccc5c4)c23)C1` [Example 7, [(3S)-3-Methylmorpholin-4-yl][(7S)-4-(pyrazolo[1,5-a]pyridin-5-ylamino)-5,6,7,8-tetrahydro[1]benzothieno[2,3-d]pyrimidin-7-yl]methanone], the IC50 is 65 nM.

Take `COc1cn2nccc2cc1Nc1ncnc2sc3c(c12)CC[C@H](C(=O)N(C)C(C)(C)C)C3` [Example 120, (7S)—N-tert-Butyl-4-[(6-methoxypyrazolo[1,5-a]pyridin-5-yl)amino]-N-methyl-5,6,7,8-tetrahydro[1]benzothieno[2,3-d]pyrimidine-7-carboxamide]: the IC50 came to 5 nM.

Take `CC1(O)CN(C(=O)[C@H]2CCc3c(sc4ncnc(Nc5cc6ccnn6cc5Cl)c34)C2)C1` [Example 52, (7S)-4-[(6-Chloropyrazolo[1,5-a]pyridin-5-yl)amino]-5,6,7,8-tetrahydro[1]benzothieno[2,3-d]pyrimidin-7-yl(3-hydroxy-3-methylazetidin-1-yl)methanone]: the IC50 came to 8 nM.

As for `COc1cn2nccc2cc1Nc1ncnc2sc3c(c12)CC[C@H](C(=O)NC1(C)CCC1)C3` [Example 87, (7S)-4-[(6-Methoxypyrazolo[1,5-a]pyridin-5-yl)amino]-N-(1-methylcyclobutyl)-5,6,7,8-tetrahydro[1]benzothieno[2,3-d]pyrimidine-7-carboxamide], the IC50 was determined as 4 nM.

With `COCCN(C)C(=O)[C@H]1CCc2c(sc3ncnc(Nc4cc5ccnn5cc4Cl)c23)C1` [Example 56, (7S)-4-[(6-Chloropyrazolo[1,5-a]pyridin-5-yl)amino]-N-(2-methoxyethyl)-N-methyl-5,6,7,8-tetrahydro[1]benzothieno[2,3-d]pyrimidine-7-carboxamide], the IC50 is 41 nM.

`CN1C[C@H]2C[C@@H]1CN2C(=O)[C@H]1CCc2c(sc3ncnc(Nc4cc5ccnn5cc4Cl)c23)C1` [Example 73, (7S)-4-[(6-Chloropyrazolo[1,5-a]pyridin-5-yl)amino]-5,6,7,8-tetrahydro[1]benzothieno[2,3-d]pyrimidin-7-yl[(1R,4R)-5-methyl-2,5-diazabicyclo[2.2.1]hept-2-yl]methanone]: the IC50 worked out at 4 nM.

For the compound `COCCNC(=O)[C@H]1CCc2c(sc3ncnc(Nc4cc5ccnn5cc4OC)c23)C1` [Example 84, (7S)—N-(2-Methoxyethyl)-4-[(6-methoxypyrazolo[1,5-a]pyridin-5-yl)amino]-5,6,7,8-tetrahydro[1]benzothieno[2,3-d]pyrimidine-7-carboxamide], the IC50 turned out to be 3 nM.

`C[C@@H]1COCCN1C(=O)[C@H]1CCc2c(sc3ncnc(Nc4cc5ccnn5cc4Cl)c23)C1` [Example 77, (7S)-4-[(6-Chloropyrazolo[1,5-a]pyridin-5-yl)amino]-5,6,7,8-tetrahydro[1]benzothieno[2,3-d]pyrimidin-7-yl[(3R)-3-methylmorpholin-4-yl]methanone]: the IC50 amounted to 21 nM.

Consider `CN(CC(F)F)C(=O)[C@H]1CCc2c(sc3ncnc(Nc4cc5ccnn5cc4Cl)c23)C1` [Example 47, (7S)-4-[(6-Chloropyrazolo[1,5-a]pyridin-5-yl)amino]-N-(2,2-difluoroethyl)-N-methyl-5,6,7,8-tetrahydro[1]benzothieno[2,3-d]pyrimidine-7-carboxamide], for which the IC50 was found to be 18 nM.

As to `CN(CC(C)(C)O)C(=O)[C@H]1CCc2c(sc3ncnc(Nc4ccn5nccc5c4)c23)C1` [Example 19, (7S)—N-(2-Hydroxy-2-methylpropyl)-N-methyl-4-(pyrazolo[1,5-a]pyridin-5-ylamino)-5,6,7,8-tetrahydro[1]benzothieno[2,3-d]pyrimidine-7-carboxamide], the IC50 worked out at 21 nM.

In the case of `COc1cn2nccc2cc1Nc1ncnc2sc3c(c12)CC[C@H](C(=O)N(C)CCC(F)(F)F)C3` [Example 96, (7S)-4-[(6-Methoxypyrazolo[1,5-a]pyridin-5-yl)amino]-N-methyl-N-(3,3,3-trifluoropropyl)-5,6,7,8-tetrahydro[1]benzothieno[2,3-d]pyrimidine-7-carboxamide], the IC50 was 7 nM.

`COc1cn2nccc2cc1Nc1ncnc2sc3c(c12)CC[C@H](C(=O)NC(C)(C)C)C3` [Example 86, (7S)—N-tert-Butyl-4-[(6-methoxypyrazolo[1,5-a]pyridin-5-yl)amino]-5,6,7,8-tetrahydro[1]benzothieno[2,3-d]pyrimidine-7-carboxamide]: the IC50 came out at 4 nM.

Take `COc1cn2nccc2cc1Nc1ncnc2sc3c(c12)CC[C@H](C(=O)N1CCC(N(C)C)CC1)C3` [Example 109, [4-(Dimethylamino)piperidin-1-yl](7S)-4-[(6-methoxypyrazolo[1,5-a]pyridin-5-yl)amino]-5,6,7,8-tetrahydro[1]benzothieno[2,3-d]pyrimidin-7-ylmethanone]: the IC50 stood at 1 nM.

Regarding `COCCN(C)C(=O)[C@H]1CCc2c(sc3ncnc(Nc4ccn5nccc5c4)c23)C1` [Example 8, (7S)—N-(2-Methoxyethyl)-N-methyl-4-(pyrazolo[1,5-a]pyridin-5-ylamino)-5,6,7,8-tetrahydro[1]benzothieno[2,3-d]pyrimidine-7-carboxamide], the IC50 was 42 nM.

For `CN(C)CCN(C)C(=O)[C@H]1CCc2c(sc3ncnc(Nc4ccn5nccc5c4)c23)C1` [Example 4, (7S)—N-[2-(Dimethylamino)ethyl]-N-methyl-4-(pyrazolo[1,5-a]pyridin-5-ylamino)-5,6,7,8-tetrahydro[1]benzothieno[2,3-d]pyrimidine-7-carboxamide], the IC50 amounted to 21 nM.

With `COc1cn2nccc2cc1Nc1ncnc2sc3c(c12)CC[C@H](C(=O)NCCO)C3` [Example 83, (7S)—N-(2-Hydroxyethyl)-4-[(6-methoxypyrazolo[1,5-a]pyridin-5-yl)amino]-5,6,7,8-tetrahydro[1]benzothieno[2,3-d]pyrimidine-7-carboxamide], the IC50 is 3 nM.

Turning to `CN1C[C@H]2C[C@@H]1CN2C(=O)[C@H]1CCc2c(sc3ncnc(Nc4ccn5nccc5c4)c23)C1` [Example 42, [(1R,4R)-5-Methyl-2,5-diazabicyclo[2.2.1]hept-2-yl][(7S)-4-(pyrazolo[1,5-a]pyridin-5-ylamino)-5,6,7,8-tetrahydro[1]benzothieno[2,3-d]pyrimidin-7-yl]methanone], the IC50 came to 11 nM.

`O=C([C@H]1CCc2c(sc3ncnc(Nc4cc5ccnn5cc4Cl)c23)C1)N1CCOCC1` [Example 68, (7S)-4-[(6-Chloropyrazolo[1,5-a]pyridin-5-yl)amino]-5,6,7,8-tetrahydro[1]benzothieno[2,3-d]pyrimidin-7-yl(morpholin-4-yl)methanone]: the IC50 was found to be 4 nM.

With `CCN(CCO)C(=O)[C@H]1CCc2c(sc3ncnc(Nc4cc5ccnn5cc4Cl)c23)C1` [Example 69, (7S)-4-[(6-Chloropyrazolo[1,5-a]pyridin-5-yl)amino]-N-ethyl-N-(2-hydroxyethyl)-5,6,7,8-tetrahydro[1]benzothieno[2,3-d]pyrimidine-7-carboxamide], the IC50 was 6 nM.

Consider `O=C([C@H]1CCc2c(sc3ncnc(Nc4cc5ccnn5cc4Cl)c23)C1)N1C[C@@H]2C[C@H]1CO2` [Example 74, (7S)-4-[(6-Chloropyrazolo[1,5-a]pyridin-5-yl)amino]-5,6,7,8-tetrahydro[1]benzothieno[2,3-d]pyrimidin-7-yl[(1S,4S)-2-oxa-5-azabicyclo[2.2.1]hept-5-yl]methanone], for which the IC50 is 22 nM.

Turning to `O=C([C@H]1CCc2c(sc3ncnc(Nc4cc5ccnn5cc4Cl)c23)C1)N1C[C@H](O)[C@@H](O)C1` [Example 60, (7S)-4-[(6-Chloropyrazolo[1,5-a]pyridin-5-yl)amino]-5,6,7,8-tetrahydro[1]benzothieno[2,3-d]pyrimidin-7-yl[(3S,4S)-3,4-dihydroxypyrrolidin-1-yl]methanone], the IC50 amounted to 18 nM.
